Experimental data from patent publication US20240325366A1, “SELECTIVE CDK9 INHIBITOR FOR THE TREATMENT OF A RAS MUTANT CANCER” (VINCERX PHARMA, INC., priority 2021, published 2024).
Read-outs that look alike come from different tables or passages of the source.

Tests used:
Type in all cases: cell-based
[1] = system: panel of 500 tumor cell lines; test: antiproliferative activity, panel of 500 tumor cell lines (OmniScreen)
Text: (§1) To determine associations of genomic alterations with compound 1′ sensitivity, 458 were mapped to a cell line present in DepMap (21Q3). Of the 458 cell lines mapped, there were 440 with available mutation data in DepMap. Cell line mutation and copy number data were accessed and for mutations, the data were filtered to include variants with a “damaging” or “other non-conserving” annotation only, in order to select variants which are more likely to be functionally important. The top quartile of cell lines based on their compound 1′IC50 values were defined as groups for comparison with the bottom quartile.

143B = test: antiproliferative activity (OmniScreen); details: Homo sapiens, Bone, 72 hours, read-out: Absolute IC50
Text: as §1

Calu-6 = test: antiproliferative activity (OmniScreen); details: Homo sapiens; Calu-6, Lung, 72 hours; read-out: Absolute IC50
Text: as §1

CoC1/DDP = test: antiproliferative activity (OmniScreen); details: Ovary, 72 hours, read-out: Absolute IC50
Text: as §1

DV-90 = test: antiproliferative activity (OmniScreen); details: Homo sapiens; DV-90, Lung, 72 hours; read-out: Absolute IC50
Text: as §1

HCC44 = test: antiproliferative activity (OmniScreen); details: Homo sapiens; HCC44, Lung, 72 hours; read-out: Absolute IC50
Text: as §1

HEC-1-B = test: antiproliferative activity (OmniScreen); details: Homo sapiens, Uterus, 72 hours, read-out: Absolute IC50
Text: as §1

LCLC-97TM1 = test: antiproliferative activity (OmniScreen); details: Homo sapiens; LCLC-97TM1, Lung, 72 hours; read-out: Absolute IC50
Text: as §1

LS513 = test: antiproliferative activity (OmniScreen); details: Homo sapiens, LS-513; LS513, Large intestine/Colorectum, 72 hours; read-out: Absolute IC50
Text: as §1

MOLP8 = test: antiproliferative activity (OmniScreen); details: Homo sapiens, MOLP-8; MOLP8, Blood/Myeloma, 72 hours; read-out: Absolute IC50
Text: as §1

NCI-H1944 = test: antiproliferative activity (OmniScreen); details: Homo sapiens; NCI-H1944, Lung, 72 hours; read-out: Absolute IC50
Text: as §1

NCI-H2122 = test: antiproliferative activity (OmniScreen); details: Homo sapiens; NCI-H2122, Lung, 72 hours; read-out: Absolute IC50
Text: as §1

NCI-H358 = test: antiproliferative activity (OmniScreen); details: Homo sapiens; NCI-H358, Lung, 72 hours; read-out: Absolute IC50
Text: as §1

Panc 05.04 = test: antiproliferative activity (OmniScreen); details: Panc 05.04, Pancreas, 72 hours; read-out: Absolute IC50
Text: as §1

RBE = test: antiproliferative activity (OmniScreen); details: Liver/Bile duct, 72 hours, read-out: Absolute IC50
Text: as §1

SU-DHL-10 = test: antiproliferative activity (OmniScreen); details: Homo sapiens, SU-DHL10; SU-DHL-10, Lymphoma, 72 hours; read-out: Absolute IC50
Text: as §1

SU.86.86 = test: antiproliferative activity (OmniScreen); details: Homo sapiens; SU.86.86, Pancreas, 72 hours; read-out: Absolute IC50
Text: as §1

UM-UC-3 = test: antiproliferative activity (OmniScreen); details: Homo sapiens, UMUC3; UM-UC-3, Bladder, 72 hours; read-out: Absolute IC50
Text: as §1

A549 = test: in vitro cytotoxicity, MTT assay; details: Homo sapiens; A549, Lung, KRAS p.G12S
Method: (§2) Cultivation of cells was performed according to standard procedures with the media recommended by the provider. The cells, in a total volume of 100 μL, were seeded in a 96-well plate with a white bottom (#3610). After a 24h incubation period at 37° C. and 5% CO2 the medium was exchanged by adding 90 μL fresh medium. The treatment started by adding the test compound in 10 μL of culture medium to the cells in triplicates. Concentrations ranging from 10^−6 M to 10^−13 M were chosen. The proliferation was detected using the MTT assay (ATCC). At the end of the incubation period the MTT reagent was added to all samples for 4h. Lysis of the cells followed by addition of the detergent was done overnight. The formed dye was detected at 570 nm. The proliferation of cells was defined as the 100% value.

COLO205 = test: in vitro cytotoxicity, MTT assay; details: Homo sapiens, COLO 205; COLO205, Colorectal, KRAS WT
Method: as §2

HCT116 = test: in vitro cytotoxicity, MTT assay; details: Homo sapiens, HCT-116; HCT116, Colorectal, KRAS p.G13D
Method: as §2

HCT15 = test: in vitro cytotoxicity, MTT assay; details: Homo sapiens, HCT-15; HCT15, Colorectal, KRAS p.G13D
Method: as §2

HCT8 = test: in vitro cytotoxicity, MTT assay; details: Homo sapiens, HCT-8; HCT8, Colorectal, KRAS WT
Method: as §2

HT-29 = test: in vitro cytotoxicity, MTT assay; details: Homo sapiens; HT-29, Colorectal, KRAS WT
Method: as §2

MIAPaCa2 = test: in vitro cytotoxicity, MTT assay; details: Homo sapiens, MIA PaCa-2; MIAPaCa2, Pancreatic, KRAS pG12C
Method: as §2

NCI-H460 = test: in vitro cytotoxicity, MTT assay; details: Homo sapiens; NCI-H460, Lung, KRAS p.Q61H
Method: as §2

SW480 = test: in vitro cytotoxicity, MTT assay; details: Homo sapiens; SW480, Colorectal, KRAS p.G12V
Method: as §2

SW620 = test: in vitro cytotoxicity, MTT assay; details: Homo sapiens, SW-620; SW620, Colorectal, KRAS p.G12V
Method: as §2

SW837 = test: in vitro cytotoxicity, MTT assay; details: Homo sapiens; SW837, Colorectal, KRAS pG12C
Method: as §2

[2] = system: KRAS mutant colorectal and lung cancer cell lines; test: in vitro cytotoxicity, MTT assay, summary; details: multiple KRAS mutant colorectal and lung cancer cell lines
Method: as §2

## COc1cc(F)ccc1-c1cc(Nc2cc(CS(C)(=N)=O)ccn2)ncc1F (single isomer, unassigned; (+)) [Compound 1′, (+)5-fluoro-4-(4-fluoro-2-methoxyphenyl)-N-{4-[(S-methylsulfonimidoyl)methyl]pyridin-2-yl}pyridin-2-amine]
[1]; N=110 cell lines with mutation data in DepMap, read-out: IC50 bottom quartile (most sensitive cell lines)
  IC50: ≤ 90.5 nM
[1]; N=130 cell lines with mutation data in DepMap, read-out: IC50 top quartile (least sensitive cell lines)
  IC50: ≥ 152 nM
[1]; panel of 500 tumor cell lines, 72 hours of treatment, read-out: IC50 range, lower end
  IC50: 28 nM
[1]; panel of 500 tumor cell lines, 72 hours of treatment, read-out: IC50 range, upper end
  IC50: 2100 nM
[1]; panel of 500 tumor cell lines, 72 hours of treatment, read-out: mean IC50
  IC50: 113 nM
143B
  IC50: 73 nM
Calu-6
  IC50: 39 nM
CoC1/DDP
  IC50: 72 nM
DV-90
  IC50: 90 nM
HCC44
  IC50: 90 nM
HEC-1-B
  IC50: 67 nM
LCLC-97TM1
  IC50: 46 nM
LS513
  IC50: 51 nM
MOLP8
  IC50: 80 nM
NCI-H1944
  IC50: 75 nM
NCI-H2122
  IC50: 70 nM
NCI-H358
  IC50: 41 nM
Panc 05.04
  IC50: 38 nM
RBE
  IC50: 72 nM
SU-DHL-10
  IC50: 74 nM
SU.86.86
  IC50: 82 nM
UM-UC-3
  IC50: 67 nM
A549
  IC50: 98 nM
COLO205
  IC50: 70 nM
HCT116
  IC50: 46 nM
HCT15
  IC50: 33.5 nM
HCT8
  IC50: 83 nM
HT-29
  IC50: 83 nM
MIAPaCa2
  IC50: 128 nM
NCI-H460
  IC50: 75 nM
SW480
  IC50: 143 nM
SW620
  IC50: > 500 nM
SW837
  IC50: 620 nM
[2]
  activity against KRAS mutant cancer cell lines: active
